Test system: calf thymus DNA
Test: Thermal denaturation studies on calf thymus DNA
Format: binding
Settings: increase of denaturation temperature
Protocol: Thermal denaturation studies were performed on calf thymus DNA. Addition of the compounds of the present invention to the calf thymus DNA caused the denaturation temperature to increase approximately 11° C. (see Table 1).
With `CC(C)(c1ccc(Oc2ccc(Nc3c4ccccc4nc4ccccc34)cc2)cc1)c1ccc(Oc2ccc(Nc3c4ccccc4nc4ccccc34)cc2)cc1` the ΔTm was 11.6 ± 0.4 °C. In the case of `CC(C)(c1ccc(Nc2c3ccccc3nc3ccccc23)cc1)c1ccc(C(C)(C)c2ccc(Nc3c4ccccc4nc4ccccc34)cc2)cc1`, the ΔTm is reported as 10.9 ± 0.31 °C. In the case of `c1ccc2c(NC3CCC(CC4CCC(Nc5c6ccccc6nc6ccccc56)CC4)CC3)c3ccccc3nc2c1` (centres unmarked), the ΔTm is reported as 25.9 ± 4.1 °C.

Test system: L1210 murine leukemia cells
Test: Cytotoxicity in the murine leukemia cell line L1210 (growth inhibition, 72 hours)
Format: cell-based
Settings: Mus musculus, L1210, 72 h, read-out: ID50
Protocol: Using the methodologies disclosed by Jaycox et al. J. Heterocyclic. […] A number of intercalating agents currently in clinical use for treatment of cancer were also evaluated in this assay for comparison.
L1210 murine leukemia cells were routinely maintained as suspension cultures in McCoy's 5A medium supplemented with 10% horse serum, glutamine, penicillin, and streptomycin and grown in a humidified environment of 10% carbon dioxide and 90% air at 37° C. Compounds were dissolved in dimethyl sulfoxide (DMSO) and 40 μg was added to 4 ml of L1210 cells (10^5 cells/tube) to attain final drug concentrations of 0.01, 0.1 and 10 μg/ml of culture. After 72 hours of continuous exposure to the drug, the cell concentration was determined by a Coulter counter (Model ZBF, Hialeah, Fla.). Growth inhibition was calculated for each drug concentration using the following formula:
% growth inhibition=(1-A)×100, wherein A=[cell # treated/cell # in
The growth inhibition data were then used to calculate the ID50 value (the calculated drug concentration required to inhibit cell growth by 50% of control).
`Cn1cc(NC(=O)c2cc(NC(=O)c3cc(NC=O)cn3C)cn2C)cc1C(=O)NCCC(=N)N` [distamycin-A, reference compound] gave an IC50 of 6 µM. In the case of `CC[n+]1c(-c2ccccc2)c2cc(N)ccc2c2ccc(N)cc21` [ethidium bromide, reference compound], the IC50 is reported as 4.1 µM.

Same assay, conditions: Mus musculus; L1210 murine leukemia; 72 hours of continuous exposure; concentration which inhibits growth of 50% of the cells; read-out: ID50 (the source's name)
For `c1cc(Nc2c3ccccc3nc3ccccc23)cc(Oc2cccc(Oc3cccc(Nc4c5ccccc5nc5ccccc45)c3)c2)c1`, the IC50 was 5.9 µM. `c1ccc2c(N[C@H]3CC[C@@H](C[C@H]4CC[C@@H](Nc5c6ccccc6nc6ccccc56)CC4)CC3)c3ccccc3nc2c1` gave an IC50 of 0.44 µM. For `Cc1cc2cccnc2c2ncccc12` [5-methyl-1,10-phenanthroline, reference compound], the IC50 was 2 µM. `Nc1c2ccccc2nc2ccccc12` [9-aminoacridine] showed an IC50 of 2.3 µM. Compound `CC(C)(c1ccc(Oc2ccc(Nc3c4ccccc4nc4ccccc34)cc2)cc1)c1ccc(Oc2ccc(Nc3c4ccccc4nc4ccccc34)cc2)cc1` has an IC50 of 5.4 µM. In the case of `CC(C)(c1ccc(Nc2c3ccccc3nc3ccccc23)cc1)c1ccc(C(C)(C)c2ccc(Nc3c4ccccc4nc4ccccc34)cc2)cc1`, the IC50 is reported as > 13 µM. With `c1ccc2c(N[C@H]3CC[C@@H](C[C@H]4CC[C@H](Nc5c6ccccc6nc6ccccc56)CC4)CC3)c3ccccc3nc2c1` the IC50 was 0.56 µM. In the case of `c1ccc2c(N[C@H]3CC[C@H](C[C@H]4CC[C@H](Nc5c6ccccc6nc6ccccc56)CC4)CC3)c3ccccc3nc2c1`, the IC50 is reported as 0.5 µM. For `Cc1c2ccncc2c(C)c2c1[nH]c1ccccc12` [ellipticine, reference compound], the IC50 was 0.53 µM.

Test system: DNA
Test: not given
Settings: DNA binding characteristics of acridine dimers, Le Pecq et al. 1975; cited from earlier work
For `COc1ccc2nc3cc(Cl)ccc3c(NCCCCNCCCNc3c4ccc(Cl)cc4nc4ccc(OC)cc34)c2c1` [IIB], the “mode of intercalation (bis- or monofunctional)” value (shortened to “mode of intercalation”) is listed as “bisintercalated”. In the case of `COc1ccc2nc3cc(Cl)ccc3c(NCCCNCCCNc3c4ccc(Cl)cc4nc4ccc(OC)cc34)c2c1` [III], the “mode of intercalation” value is given as “only one of the two rings of the dimer with the shortest chain (III) of 9 angstroms was intercalated”. For `COc1ccc2nc3cc(Cl)ccc3c(NCCCNCCCCNCCCNc3c4ccc(Cl)cc4nc4ccc(OC)cc34)c2c1` [IIA], the “mode of intercalation” value is listed as “bisintercalated”.

From patent US6187787A, “Bis(9-aminoacridine) DNA intercalating agents having antitumor activity” (Trustees of Dartmouth College, priority 2000, dated 2001)
